Source: patent US5985273A, “Biological control of insects” (priority 1994, dated 1999)

Columns and labels:
Lucilia cuprina larvae = experiment: Growth and survival of first instar sheep blowfly larvae on culture medium with inhibitor; format: in vivo; settings: for % Growth Incubation / Average Larval Weight: Table 2.3; for Average Larval Weight: control 9.08
L. cuprina eggs = experiment: Egg hatch of L. cuprina on liver in vitro; format: in vivo, Lucilia cuprina; settings: 24 hours at 35° C., control 71
Method: L. cuprina eggs were placed on pieces of liver (0.9 g) which were then placed in individual wells of a 24-well tissue culture plate. Phosphate buffered saline (PBS, 0.1 ml) containing inhibitors at set concentrations were added to each well with 30 freshly laid and sterilised eggs of L. cuprina. The culture plate was then maintained in a sterile environment at 35° C. for 24 hours, after which time the percentage hatch was assessed.

[1] = test system: Heliothis punctigens larvae; experiment: Growth and survival of cotton budworm larvae fed an artificial diet; format: in vivo; settings: 10 days; for % Alive: control 70.0; for Average Laval Weight: control 165.4
Method: 1. The Haricot beans were cooked in a microwave for 40 minutes. 2. Agar was added to the hot water and stirred on a hot plate until almost boiling. 3. The haricot beans, agar mix, yeast and wheat germ was blended in an electric mixer for 3 minutes. 4. When the temperature has dropped to 60°C., the acids were added and mixed with the media. […] Inhibitor solutions or an equal volume of water were placed into sterilized glass tubes at designated concentrations. The artificial media was added to each tube (1.5 ml) using a sterile 10 ml syringe. First instar Heliothis punctigens larvae (1 larvae per tube) were added to the glass tubes and the tubes were capped. The tubes were incubated for 10 days at 25° C. The larvae were killed by placing the glass tubes at -70° C. for 24 hours, and then individually weighed. Percentage inhibition was calculated by comparison to control larvae.

Ctenocephalides felis = experiment: Development of cat flea eggs in dried blood diets; format: in vivo; settings: Day 16
Method: Blood was collected from the jugular vein of a five year old merino sheep that had not been treated with an ectoparasitic agent for 18 months. The blood was collected into a 100 ml plastic bottle containing 0.8 ml of heparin and was maintained at 4° C. Inhibitors were pre-weighed into sterile 5 ml plastic vials and 4.5 ml of blood added. The samples were mixed, placed at -70° C. for 24 hours, then freeze-dried. The freeze-dried samples were sieved through a stainless steel 63 micron sieve, and placed into sterile 5 ml plastic vials (0.15 g/per tube). Four flea eggs were placed into each vial, and a sheet of tissue paper fastened by an elastic band was fitted to the top of each vial. The vials were incubated at 25° C. and 70-80% R H for 6 days. Vermiculite was then added to each vial to provide a supporting medium for the fleas to pupate and the tubes incubated at 25° C. and 70-80% R H, for a further 10 days. Ten control vials and three vials of each treatment were tested.
At the conclusion of the incubation period the vials were placed at -20° C. for 24 hours to kill the fleas. The number of eggs hatched and the life-cycle state was recorded.

Teleogryllus commodus = experiment: Mortality of black field cricket nymphs on treated cabbage leaf disks; format: in vivo; settings: 30 mM; after 7 days
Method: (i) Stock solutions of inhibitors and control solutions were prepared as aqueous solutions or suspensions as outlined in Table 6.1.
(ii) Mortality was assessed by commencing the study with 1st instar nymphs.
(iii) Cabbage leaf disks (5×8 mm diameter disks/treatment) were smeared with 100 μl of inhibitor or control stock solutions and allowed to dry. Disks were placed singly in 40 mm petri dishes, together with a moist cotton wool pas as water supply and a piece of fluted plastic for shelter.
(iv) Ten nymphs were placed on each disc and the dishes incubated at 25° C.
(v) Mortality was assessed daily and any dead individuals removed.

[2] = test system: Bovicola ovis (Hartley strain); experiment: Survival of sheep lice on inhibitor treated wool; format: in vivo; settings: of 10 lice
Tribolium castaneum = experiment: Growth and survival of Tribolium castaneum in treated flour; format: in vivo; settings: Day 6; all dose levels
Method: Insects were cultured in cleaned, ground and sieved wholemeal flour made from organic wheat. Inhibitors from bottles of pre-weighed material were dry-mixed with the flour and residual inhibitor rinsed from bottles with a small volume of water. Rinse water was added to the flour and the mixture re-ground. The impregnated flour was transferred to a 20 mL vial and mixed thoroughly by shaking and inverting. Adults of T. castaneum were allowed to oviposit on flour, eggs were sifted from the flour and transferred one by one with a single hair to microwell tubes containing a small amount of flour. Each level of treatment was performed in triplicated using 32 wells/replicate. Assays were performed in triplicated. Cultures were incubated at 30° C. and 55% R H. After 6 days each replicate of 32 wells was combined, the larvae counted and the numbers compared with numbers in the control (no inhibitor) treatment. Larvae were classified as "small" if appreciably smaller than reference larvae, or abnormal if unusual behaviour or formation were observed (eg. twisting or twisted larvae). Test inhibitors and dose rates were the same as those used in Example 4.

O. surinamensis larvae = experiment: Weight reduction of Oryzaephylus surinamensis larvae in treated flour; format: in vivo
Method: Insects were cultured in cleaned, ground and sieved wholemeal flour made from organic wheat. Inhibitors from bottles of pre-weighed material were dry-mixed with the flour and residual inhibitor rinsed from bottles with a small volume of water. Rinse water was added to the flour and the mixture re-ground. The impregnated flour was transferred to a 20 mL vial and mixed thoroughly by shaking and inverting.
Adults of T. castaneum were allowed to oviposit on flour, eggs were sifted from the flour and transferred one by one with a single hair to microwell tubes containing a small amount of flour. Each level of treatment was performed in triplicated using 32 wells/replicate. Assays were performed in triplicated. Cultures were incubated at 30° C. and 55% R H.
The bioassay for this insect was outlined for T. castaneum, except incubations were conducted at 32.5° C. and 70% R H. After 8 days the insects were sieved from the flour and weighed.

## O=C(O)CN(CCN(CC(=O)O)CC(=O)O)CC(=O)O [EDTA, ethylene diamine tetraacetic acid]
Lucilia cuprina larvae; Example 1, Table 1.2
  Effect on larval growth, summary in words: effective growth inhibitors
Lucilia cuprina larvae; Lucilia cuprina, first instar larvae, 5 mM
  inhibition at 5000 µM: 84%
Lucilia cuprina larvae; 0.25 mM
  % Growth Incubation: -6.6%
  Average Larval Weight: 9.68 10^-4 g
Lucilia cuprina larvae; 0.50 mM
  % Growth Incubation: 39.8%
  Average Larval Weight: 5.47 10^-4 g
Lucilia cuprina larvae; 1.0 mM
  % Growth Incubation: 69.7%
  Average Larval Weight: 2.75 10^-4 g
Lucilia cuprina larvae; 1.5 mM
  % Growth Incubation: 51.2%
  Average Larval Weight: 4.43 10^-4 g
Lucilia cuprina larvae; 2.0 mM
  % Growth Incubation: 72.4%
  Average Larval Weight: 2.51 10^-4 g
Lucilia cuprina larvae; first instar larvae, 10 mM
  Larval survival: All killed
L. cuprina eggs; 2 mM
  % Hatch: 10%
L. cuprina eggs; 5 mM
  % Hatch: 0%
L. cuprina eggs; 10 mM
  % Hatch: 10%
[1]; 2.5 mM
  % Alive: 50.0%
  Average Laval Weight: 123.6 mg
[1]; 5.0 mM
  % Alive: 33.3%
  Average Laval Weight: 9.25 mg
[1]; 10.0 mM
  % Alive: 67.0%
  Average Laval Weight: 4.75 mg
[1]; Heliothis, 240 h, 2.5 mM, read-out: % Growth Inhibition
  inhibition at 2500 µM: 25.3%
[1]; Heliothis, 240 h, 5.0 mM, read-out: % Growth Inhibition
  inhibition at 5000 µM: 94.4%
[1]; Heliothis, 240 h, 10.0 mM
  inhibition at 10000 µM: 97.1%
Ctenocephalides felis; 1.5625 mg in 4.5 ml of blood, control 97.5
  Percentage of Fleas Progressing Through to Pupation: 0%
Ctenocephalides felis; 3.125 mg in 4.5 ml of blood
  Percentage of Fleas Progressing Through to Pupation: 0%
Ctenocephalides felis; 6.25 mg in 4.5 ml of blood
  Percentage of Fleas Progressing Through to Pupation: 0%
Teleogryllus commodus
  Mortality: 78%
  Mortality (class): High (high 41-100%)
[2]; Adult, 10 mM, 24 Hours at 35° C.
  Number of Living Lice: 2
[2]; Adult, 20 mM, 24 Hours at 35° C.
  Number of Living Lice: 1
[2]; Adult, third EDTA line, concentration not given, 24 Hours
  Number of Living Lice: 0
[2]; instar 1, 10 mM, 24 Hours at 35° C.
  Number of Living Lice: 0
[2]; instar 1, 20 mM, 24 Hours at 35° C.
  Number of Living Lice: 0
[2]; instar 1, third EDTA line, concentration not given, 24 Hours
  Number of Living Lice: 0
[2]; instar 2, 10 mM, 24 Hours at 35° C.
  Number of Living Lice: 2
[2]; instar 2, 20 mM, 24 Hours at 35° C.
  Number of Living Lice: 1
[2]; instar 2, third EDTA line, concentration not given, 24 Hours
  Number of Living Lice: 0
[2]; instar 3, 10 mM, 24 Hours at 35° C.
  Number of Living Lice: 1
[2]; instar 3, 20 mM, 24 Hours at 35° C.
  Number of Living Lice: 0
[2]; instar 3, third EDTA line, concentration not given, 24 Hours
  Number of Living Lice: 0
Tribolium castaneum
  Larval size classification: small
O. surinamensis larvae; 192 h, 10 mM, 8 days, relative to untreated larvae, read-out: Percentage Growth Inhibition
  inhibition at 10000 µM: 32%
O. surinamensis larvae; 192 h, 20 mM, 8 days, relative to untreated larvae, read-out: Percentage Growth Inhibition
  inhibition at 20000 µM: 4%
O. surinamensis larvae; 192 h, 30 mM, 8 days, relative to untreated larvae, read-out: Percentage Growth Inhibition
  inhibition at 30000 µM: 28%
O. surinamensis larvae; text summary of Table 9.1
  Growth inhibition, summary in words: moderately effective
